How the values were obtained:
Drug half-life in rats = conditions: rat, in vivo
Source text: Table 1 Biological and physiochemical data for esters of ring-substituted ketamine analogues. | column: Rat / t½ ^e (min)

rats [1] = test: Anaesthetic assessment by continuous intravenous infusion in rats (loss and return of righting reflex); format: in vivo; conditions: iv; rat, i.v. infusion starting at 20 mg/kg/min; measure of sedative potency; mean (SEM); read-out: Sedation LORR: minimal dose for loss of righting reflex (SEM)
Method: (§1) The compounds were evaluated for their ability to anaesthetise rats when administered by continuous intravenous infusion, as reported previously. Compounds were administered to initially deliver 20 mg/kg/min (weight-adjusted flow) to achieve a pedal withdrawal reflex score (PWR = 1), then titrated to maintain loss of righting reflex (LORR) for 10 min. Three rats were used in each study, with each group of rats also acting as their own ketamine control. Data were collected on the total dose of drug (mg/kg), to achieve LORR and a PWR = 1, and on the time (in seconds, from cessation of the infusion) to recovery of righting reflex (RORR) (recovery from the hypnotic anaesthesia effect). Given the complexity of the experimental protocol, the total dose for LORR (Table 1) is very consistent, with ranges of only 1.5-fold within each group. The consistency of the post-sedation recovery times are expectedly lower, with ranges of about 2.5-fold. During recovery the rats were monitored for multiple signs of behavioural dysfunction (see biology section for details) and the sum of these scores (from 0 to 4, with 0 being no effect and 4 being severe dysfunction) is given in Table 2. IC50 values for inhibition of the NMDA receptor were conducted by Eurofins PanLabs, Taiwan.
(§2) All animal experiments were conducted at the Ruakura Research Centre, Hamilton, New Zealand, using experimental protocols reviewed and approved by the Ruakura Animal Ethics Committee (ethics ref 12604/13786). Adult female Sprague-Dawley rats of approximately 250–350 g were evaluated in both anaesthetic and analgaesic study protocols. All study agents were delivered by tail vein cannula connected via minibore extension tubing to mechanised infusion pump.
(§3) Following acquisition of baseline physiologic parameters (heart rate, respiratory rate, PWR, and righting reflex (RR)) ketamine or an experimental compound at 10mg/mL were commenced at a rate (weight-adjusted) to deliver 20 mg/kg/min. Dose to loss of righting reflex (LORR see below), and subsequent pedal withdrawal score of 1 (PWR see below) were recorded. Following attaining a PWR of 1, infusion rate was reduced to 6.7 mg/kg/min, then titrated in an up-and-down fashion as required to maintain both dorsal recumbency, and a PWR = 1, to 10 min before cessation. Each study used three rats, with each group of rats also acting as their own ketamine control. Prior odds/evens randomisation determined the order of study drug administration was determined by with a recovery interval of at least three hours afforded between experiments. Records of PWR and RR were made at one-minute intervals throughout, from cessation of infusion to return of righting reflex (RORR), and from cessation of infusion to the animals displaying independent locomotion (walk).
Loss of Righting Reflex (LORR): This is primarily used to assess anaesthetic hypnotic effect. Righting reflex is judged absent when the rat fails to right from a position of dorsal recumbency to a position of sternal recumbency on three attempts performed in rapid succession. Dose to LORR is termed effective potency.

[2] = target: N-methyl-D-aspartate receptor; test: Inhibition of the NMDA receptor (Eurofins Panlabs Taiwan); format: binding; conditions: conducted by Eurofins Panlabs Taiwan
Method: as §1

rats [3] = test: Pedal withdrawal reflex (PWR) scoring during intravenous infusion (analgaesic potency); format: in vivo; conditions: rat, i.v. infusion, dose to PWR = 1, mean (SEM), read-out: Analgaesia potency: minimal dose for loss of pedal withdrawal reflex (SEM)
Method: as §1, §2, §3
Pedal Withdrawal Reflex (PWR) scoring: Nociceptive testing in animals was conducted via 1 s application of constant pressure (firm digital pressure) over the forepaw of the animal. Pedal withdrawal reflex testing is primarily used to assess analgaesic effect, and responses are graded accordingly: 0, absent; 1, flicker; 2, moderate withdrawal; 3, fast withdrawal; 4, Fast withdrawal with cry/preceding apnoea (modified from).

rats [4] = test: Behavioural dysfunction scoring during recovery from infusion; format: in vivo; conditions: rat, during wake-up, sum score 0 (no effect) to 4 (severe dysfunction), mean (SEM)
Method: as §1
Behavioural dysfunction scoring: This was undertaken according to the following table. Observations were made over a one minute interval every five minutes from cessation of infusion until return of normal behaviours (total score = 0). A score of 1 was accorded for any positive behavioural aberration for each of four categories (maximal score 4) during wake-up.
Duration of any behavioural aberration was recorded from RORR as follows: score 0 = nil; score1 = 0–120 s; score 2 = 121–300 s; score 3 = 301–600 s; score 4 = 600+ s.

rats [5] = test: Tail flick analgaesic assessment (composite tail flick latency, cTFL); format: in vivo; conditions: rat, 20 mg/kg i.v. infused over 10 min; AUC of %MPE-time curve 0-60 min; measure of analgaesic magnitude/duration
Method: Analgaesic assessment protocol: Animal preparation was in accord with the anaesthetic assessment protocol above. Three rats were used in each study. Following venous cannulation, animals underwent infusion of ketamine or experimental compound at 20 mg/kg over a ten minute interval. A tail flick analgaesia meter (Colombus Instruments, Colombus, Ohio) was then used to determine thermal pain sensitivity. Radiant heat was applied using a shutter-controlled lamp as a heat source focused on a spot located 6–8 cm from the tip of the tail. The intensity of the beam was set at a level producing basal latency times between 2 and 4 s. To prevent thermal tissue injury the cut off time as set at 10 s. A digital response time indicator with a resolution of 0.1s measured the time from initiation of stimulus until tail withdrawal (the flick; TFL).
The TFL response following infusion of control and study drugs was calculated as a percentage of the maximum possible effect (MPE) such that:%MPE = [TFL (post-drug) – TFL (pre-drug)/10 s – TFL (pre-drug)] × 100%(1)
TFL latency was recorded at 5 min intervals from cessation of study drug infusion (time zero) to 60 min. Individual %MPE-time curves were constructed for each animal, and the area under the curve (AUC) adopted as a composite measure of induced analgaesia (cTFL).

SMILES	half-life (Drug half-life in rats)	minimal effective dose (rats [1])	IC50 [2]	minimal effective dose (rats [3])	Behavioural dysfunction Score (SEM): severity on recovery (rats [4])	Behavioural dysfunction Score (SEM): severity on recovery (rats [4]; listed as ketamine)	Analgaesia cTFL (composite tail flick latency) (rats [5])
CNC1(c2ccccc2Cl)CCCCC1=O (stereo not shown) [compound 1, ketamine]	44.4 min	21 mg/kg	0.7 µM	28 mg/kg	3 (0)	3	671 s
CC(C)OC(=O)CCNC1(c2ccccc2Cl)CCCCC1=O (stereo not shown) [5a]	3.4 min	33 mg/kg	134 µM	37 mg/kg	2 (1)	–	1384 s
COC(=O)CCCCNC1(c2ccccc2Cl)CCCCC1=O (stereo not shown) [5b]	0.7 min	34 mg/kg	3.2 µM	44 mg/kg	2 (0)	–	374 s
COC(=O)CCCCNC1(c2cccc(C(F)(F)F)c2)CCCCC1=O (stereo not shown) [13b]	–	> 200 mg/kg	172 µM	> 200 mg/kg	0 (0)	–	8 s
COC(=O)CCCCNC1(c2cccc(OC)c2)CCCCC1=O (stereo not shown) [12b]	–	50 mg/kg	5.6 µM	58 mg/kg	3 (1.4)	–	210 s
COC(=O)CCCCNC1(c2cccc(Cl)c2)CCCCC1=O (stereo not shown) [10b]	–	51 mg/kg	13 µM	61 mg/kg	3 (1)	–	54 s

— PMC7356787, “Structure-Activity Relationships for the Anaesthetic and Analgaesic Properties of Aromatic Ring-Substituted Ketamine Esters” (Molecules, 2020)
